Assay results from patent US9365522B2, “Pyrazole amide derivative” (AMGEN INC., priority 2015, dated 2016).

Molecular target: T1, human RORγ-LBD (Homo sapiens, UniProt P51449)
T1 construct: made in house; host or cells: E. coli (BL-21)
T1 sequence (P51449 262-518): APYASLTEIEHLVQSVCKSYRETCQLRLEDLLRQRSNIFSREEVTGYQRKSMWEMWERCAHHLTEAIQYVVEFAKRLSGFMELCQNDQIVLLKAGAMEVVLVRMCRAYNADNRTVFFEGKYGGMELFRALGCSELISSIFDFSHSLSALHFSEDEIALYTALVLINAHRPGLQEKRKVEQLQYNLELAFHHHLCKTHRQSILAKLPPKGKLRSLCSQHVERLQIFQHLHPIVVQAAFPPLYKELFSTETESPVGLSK
Test: ROR gamma coactivator peptide recruitment Alphascreen assay (RORγ-LBD binding to GRIP1 coactivator peptide)
Assay type: biochemical
Conditions: 5 nM human RORγ-LBD, 30 nM 7-β-hydroxycholesterol, 50 nM biotinylated GRIP1 coactivator peptide, overnight incubation at room temperature; read-out: result (pIC50, RORγ coactivator peptide recruitment Alphascreen assay) (converted)
How it was run: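 His/Flag-tagged human RORγ-LBD (aa 262-518, E. coli-expressed, 5 nM) with agonist 7-β-hydroxycholesterol (30 nM) and biotinylated GRIP1 LXXLL peptide (50 nM) in HEPES pH 7.4 buffer, 2.5% DMSO. Compound 1-in-2 dilutions; Alphascreen bead signal read after overnight incubation at room temperature; pIC50 calculated.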

Structure (SMILES)	IC50 [nM]
C[C@]1(C(=O)O)CC[C@H](n2ncc(C(=O)N(CC(=O)c3c(Cl)cccc3Cl)CC3(F)CC4(CC4)C3)c2C(F)(F)F)CC1 [Example 713, (1r,4r)-4-(4-((2-(2,6-dichlorophenyl)-2-oxoethyl)((5-fluorospiro[2.3]hexan-5-yl)methyl)carbamoyl)-5-(trifluoromethyl)-1H-pyrazol-1-yl)-1-methylcyclohexanecarboxylic acid]	4.07
Cc1cc(Cl)c(C(=O)CN(C(=O)c2cnn([C@H]3CC[C@](C)(C(=O)O)CC3)c2C(F)(F)F)[C@H]2C[C@@H]3[C@H](C2)C3(C)C)c(Cl)n1 [Example 714, trans-4-(4-((2-(2,4-dichloro-6-methyl-3-pyridinyl)-2-oxoethyl)((1R,3r,5S)-6,6-dimethylbicyclo[3.1.0]hex-3-yl)carbamoyl)-5-(trifluoromethyl)-1H-pyrazol-1-yl)-1-methylcyclohexanecarboxylic acid]	3.55
Cc1ncc(Cl)c(C(=O)CN(CC(C)(C)C)C(=O)c2cnn([C@H]3CC[C@](C)(C(=O)O)CC3)c2C(F)(F)F)c1Cl [Example 715, trans-4-(4-((2-(3,5-dichloro-2-methyl-4-pyridinyl)-2-oxoethyl)(2,2-dimethylpropyl)carbamoyl)-5-(trifluoromethyl)-1H-pyrazol-1-yl)-1-methylcyclohexanecarboxylic acid]	10.5
CC1(CN(CC(=O)c2c(Cl)cc(F)cc2Cl)C(=O)c2cnn([C@H]3CC[C@@](C)(C(=O)O)CC3)c2C(F)(F)F)CC1 [Example 716, trans-4-(4-((2-(2,6-dichloro-4-fluorophenyl)-2-oxoethyl)((1-methylcyclopropyl)methyl)carbamoyl)-5-(trifluoromethyl)-1H-pyrazol-1-yl)-1-methylcyclohexanecarboxylic acid]	2.69
Cc1cc(Cl)c(C(=O)CN(CC2(C)CC2)C(=O)c2cnn([C@H]3CC[C@@](C)(C(=O)O)CC3)c2C(F)(F)F)c(Cl)c1 [Example 717]	2.09
Cc1cc(Cl)c(C(=O)CN(CC2CCCC2)C(=O)c2cnn([C@H]3CC[C@@](C)(C(=O)O)CC3)c2C(F)(F)F)c(Cl)c1 [Example 718, trans-4-(4-((cyclopentylmethyl)(2-(2,6-dichloro-4-methylphenyl)-2-oxoethyl)carbamoyl)-5-(trifluoromethyl)-1H-pyrazol-1-yl)-1-methylcyclohexanecarboxylic acid]	1.74
CC(C)(C)CN(CC(=O)c1c(Cl)cncc1Cl)C(=O)c1cnn([C@H]2CC[C@H](CC(=O)O)CC2)c1C(F)(F)F [Example 719, (trans-4-(4-((2-(3,5-dichloro-4-pyridinyl)-2-oxoethyl)(2,2-dimethylpropyl)carbamoyl)-5-(trifluoromethyl)-1H-pyrazol-1-yl)cyclohexyl)acetic acid]	6.03
CC(C)(C)CN(CC(=O)c1c(Cl)cncc1Cl)C(=O)c1cnn([C@H]2CC[C@@H](CC(=O)O)CC2)c1C(F)(F)F [Example 720, (cis-4-(4-((2-(3,5-dichloro-4-pyridinyl)-2-oxoethyl)(2,2-dimethylpropyl)carbamoyl)-5-(trifluoromethyl)-1H-pyrazol-1-yl)cyclohexyl)acetic acid]	74.1
Cc1cc(Cl)c(C(=O)CN(C(=O)c2cnn([C@H]3CC[C@](C)(C(=O)O)CC3)c2C(F)(F)F)[C@H]2CCC23CCC3)c(Cl)c1 [Example 721, trans-4-(4-((2-(2,6-dichloro-4-methylphenyl)-2-oxoethyl)((1S)-spiro[3.3]hept-1-yl)carbamoyl)-5-(trifluoromethyl)-1H-pyrazol-1-yl)-1-methylcyclohexanecarboxylic acid]	0.832
Cc1cc(Cl)c(C(=O)CN(C(=O)c2cnn([C@H]3CC[C@](C)(C(=O)O)CC3)c2C(F)(F)F)[C@@H]2CCC23CCC3)c(Cl)c1 [Example 722, trans-4-(4-((2-(2,6-dichloro-4-methylphenyl)-2-oxoethyl)((1R)-spiro[3.3]hept-1-yl)carbamoyl)-5-(trifluoromethyl)-1H-pyrazol-1-yl)-1-methylcyclohexanecarboxylic acid]	9.55
Cc1cc(Cl)c(C(=O)CN(C[C@@H]2CC(C)(C)O2)C(=O)c2cnn([C@H]3CC[C@](C)(C(=O)O)CC3)c2C(F)(F)F)c(Cl)c1 [Example 723, trans-4-(4-((2-(2,6-dichloro-4-methylphenyl)-2-oxoethyl)(((2S)-4,4-dimethyl-2-oxetanyl)methyl)carbamoyl)-5-(trifluoromethyl)-1H-pyrazol-1-yl)-1-methylcyclohexanecarboxylic acid]	10
Cc1cc(Cl)c(C(=O)CN(C[C@H]2CC(C)(C)O2)C(=O)c2cnn([C@H]3CC[C@](C)(C(=O)O)CC3)c2C(F)(F)F)c(Cl)c1 [Example 724, trans-4-(4-((2-(2,6-dichloro-4-methylphenyl)-2-oxoethyl)(((2R)-4,4-dimethyl-2-oxetanyl)methyl)carbamoyl)-5-(trifluoromethyl)-1H-pyrazol-1-yl)-1-methylcyclohexanecarboxylic acid]	6.03
Cc1cc(Cl)c(C(=O)CN(C[C@@]2(C)CCCO2)C(=O)c2cnn([C@H]3CC[C@](C)(C(=O)O)CC3)c2C(F)(F)F)c(Cl)c1 [Example 725, trans-4-(4-((2-(2,6-dichloro-4-methylphenyl)-2-oxoethyl)(((2S)-2-methyltetrahydro-2-furanyl)methyl)carbamoyl)-5-(trifluoromethyl)-1H-pyrazol-1-yl)-1-methylcyclohexanecarboxylic acid]	4.47
Cc1cc(Cl)c(C(=O)CN(C[C@@]2(C)CCCO2)C(=O)c2cnn([C@H]3CC[C@](C)(C(=O)O)CC3)c2C(F)(F)F)c(Cl)c1 [Example 726, trans-4-(4-((2-(2,6-dichloro-4-methylphenyl)-2-oxoethyl)(((2R)-2-methyltetrahydro-2-furanyl)methyl)carbamoyl)-5-(trifluoromethyl)-1H-pyrazol-1-yl)-1-methylcyclohexanecarboxylic acid]	2.75
C[C@@]1(CN(CC(=O)c2c(Cl)cccc2Cl)C(=O)c2cnn([C@H]3CC[C@](C)(C(=O)O)CC3)c2C(F)(F)F)CCCO1 [Example 727, trans-4-(4-((2-(2,6-dichlorophenyl)-2-oxoethyl)(((2S)-2-methyltetrahydro-2-furanyl)methyl)carbamoyl)-5-(trifluoromethyl)-1H-pyrazol-1-yl)-1-methylcyclohexanecarboxylic acid]	11.7
C[C@]1(CN(CC(=O)c2c(Cl)cccc2Cl)C(=O)c2cnn([C@H]3CC[C@](C)(C(=O)O)CC3)c2C(F)(F)F)CCCO1 [Example 728, trans-4-(4-((2-(2,6-dichlorophenyl)-2-oxoethyl)(((2R)-2-methyltetrahydro-2-furanyl)methyl)carbamoyl)-5-(trifluoromethyl)-1H-pyrazol-1-yl)-1-methylcyclohexanecarboxylic acid]	4.79
C[C@]1(C(=O)O)CC[C@H](n2ncc(C(=O)N(CC(=O)c3c(Cl)cccc3Cl)CC3(C(F)(F)F)CC3)c2C(F)(F)F)CC1 [Example 729, (1r,4r)-4-(4-((2-(2,6-dichlorophenyl)-2-oxoethyl)((1-(trifluoromethyl)cyclopropyl)methyl)carbamoyl)-5-(trifluoromethyl)-1H-pyrazol-1-yl)-1-methylcyclohexanecarboxylic acid]	2.4
CC1(CN(CC(=O)c2c(Cl)cncc2Cl)C(=O)c2cnn([C@H]3CC[C@](C)(C(=O)O)CC3)c2C(F)(F)F)CCC1 [Example 730, trans-4-(4-((2-(3,5-dichloro-4-pyridinyl)-2-oxoethyl)((1-methylcyclobutyl)methyl)carbamoyl)-5-(trifluoromethyl)-1H-pyrazol-1-yl)-1-methylcyclohexanecarboxylic acid]	3.55
Cc1cc(Cl)c(C(=O)CN(CC2(C)CCC2)C(=O)c2cnn([C@H]3CC[C@](C)(C(=O)O)CC3)c2C(F)(F)F)c(Cl)c1 [Example 731, trans-4-(4-((2-(2,6-dichloro-4-methylphenyl)-2-oxoethyl)((1-methylcyclobutyl)methyl)carbamoyl)-5-(trifluoromethyl)-1H-pyrazol-1-yl)-1-methylcyclohexanecarboxylic acid]	0.933
Cc1cc(Cl)c(C(=O)CN(C(=O)c2cnn([C@H]3CC[C@](C)(C(=O)O)CC3)c2C(F)(F)F)C2CCC(C)(C)CC2)c(Cl)n1 [Example 732, trans-4-(4-((2-(2,4-dichloro-6-methyl-3-pyridinyl)-2-oxoethyl)(4,4-dimethylcyclohexyl)carbamoyl)-5-(trifluoromethyl)-1H-pyrazol-1-yl)-1-methylcyclohexanecarboxylic acid]	9.12
Cc1cc(Cl)c(C(=O)CN(CC2CCC2)C(=O)c2cnn([C@H]3CC[C@](C)(C(=O)O)CC3)c2C(F)(F)F)c(Cl)c1 [Example 733, trans-4-(4-((cyclobutylmethyl)(2-(2,6-dichloro-4-methylphenyl)-2-oxoethyl)carbamoyl)-5-(trifluoromethyl)-1H-pyrazol-1-yl)-1-methylcyclohexanecarboxylic acid]	2.51
C[C@]1(C(=O)O)CC[C@H](n2ncc(C(=O)N(CC(=O)c3c(Cl)cncc3Cl)CC3CCC3)c2C(F)(F)F)CC1 [Example 734, trans-4-(4-((cyclobutylmethyl)(2-(3,5-dichloro-4-pyridinyl)-2-oxoethyl)carbamoyl)-5-(trifluoromethyl)-1H-pyrazol-1-yl)-1-methylcyclohexanecarboxylic acid]	10
C[C@]1(C(=O)O)CC[C@H](n2ncc(C(=O)N(CC(=O)c3c(Cl)cncc3Cl)CC3CCCCC3)c2C(F)(F)F)CC1 [Example 735]	2.75
